Species: Rattus norvegicus
Test: DrugMatrix - Regimen: Daily Repeat
Type: toxicity, organism-based, Sprague-Dawley
Parameters: regimen Daily Repeat, gender Male, age 6-8 weeks
Details: in vivo, sc, route subcutaneous, […]; for ABSOLUTE BASOPHIL / ABSOLUTE EOSINOPHIL / ABSOLUTE LYMPHOCYTE / ABSOLUTE MONOCYTE / ABSOLUTE SEGMENTED NEUTROPHIL / BASOPHIL / EOSINOPHIL / ERYTHROCYTE COUNT / HEMATOCRIT / HEMOGLOBIN / LEUKOCYTE COUNT / LYMPHOCYTE / MEAN CORPUSCULAR HEMOGLOBIN / MEAN CORPUSCULAR HEMOGLOBIN CONCENTRATION / MEAN CORPUSCULAR VOLUME / MONOCYTE / NEUTROPHIL / NUCLEATED RED BLOOD CELLS / PLATELET COUNT: tissue Blood; for ALANINE AMINOTRANSFERASE / ALKALINE PHOSPHATASE / ASPARTATE AMINOTRANSFERASE / BLOOD UREA NITROGEN / CARBON DIOXIDE / CHLORIDE / CHOLESTEROL / CREATINE PHOSPHOKINASE / CREATININE / GLUCOSE / LACTATE DEHYDROGENASE / LIPASE / PHOSPHORUS / POTASSIUM / SODIUM / TOTAL BILIRUBIN / TOTAL PROTEIN / URIC ACID: tissue Plasma
[1] = 17 mg/kg, 120 h, dose level Low, time 5 day
[2] = 800 mg/kg, 72 h, dose level High, time 3 day
[3] = 800 mg/kg, 120 h, dose level High, time 5 day

CC(C)Cn1cnc2c(N)nc3ccccc3c21 [IMIQUIMOD]
ABSOLUTE BASOPHIL [1]: 0 CELLS/uL
ABSOLUTE EOSINOPHIL [1]: 29.67 CELLS/uL
ABSOLUTE LYMPHOCYTE [1]: 8944.33 CELLS/uL
ABSOLUTE MONOCYTE [1]: 43 CELLS/uL
ABSOLUTE SEGMENTED NEUTROPHIL [1]: 1349.67 CELLS/uL
BASOPHIL [1]: 0%
EOSINOPHIL [1]: 0.33%
ERYTHROCYTE COUNT [1]: 5.45 x10E6/uL
HEMATOCRIT [1]: 33.33%
HEMOGLOBIN [1]: 12.27 G/DL
LEUKOCYTE COUNT [1]: 10.37 x10E3/uL
LYMPHOCYTE [1]: 85.67%
MEAN CORPUSCULAR HEMOGLOBIN [1]: 22.53 pg
MEAN CORPUSCULAR HEMOGLOBIN CONCENTRATION [1]: 36.77 G/DL
MEAN CORPUSCULAR VOLUME [1]: 61.17 fL
MONOCYTE [1]: 0.33%
NEUTROPHIL [1]: 13.67%
NUCLEATED RED BLOOD CELLS [1]: 0.67 /100WBC
PLATELET COUNT [1]: 1497.33 x10E3/uL
ALANINE AMINOTRANSFERASE [1]: 53 u/L
ALKALINE PHOSPHATASE [1]: 401.33 u/L
ASPARTATE AMINOTRANSFERASE [1]: 93.33 u/L
BLOOD UREA NITROGEN [1]: 17 mg/dL
CARBON DIOXIDE [1]: 23.67 mmol/L
CHLORIDE [1]: 108.67 MEQ/L
CHOLESTEROL [1]: 52.33 mg/dL
CREATINE PHOSPHOKINASE [1]: 410.67 u/L
CREATININE [1]: 0.19 mg/dL
GLUCOSE [1]: 174.67 mg/dL
LACTATE DEHYDROGENASE [1]: 110 u/L
LIPASE [1]: 7 u/L
PHOSPHORUS [1]: 13.1 mg/dL
POTASSIUM [1]: 6.07 MEQ/L
SODIUM [1]: 146.2 MEQ/L
TOTAL BILIRUBIN [1]: 0.2 mg/dL
TOTAL PROTEIN [1]: 5.23 G/DL
URIC ACID [1]: 1.73 mg/dL
ABSOLUTE BASOPHIL [2]: 0 CELLS/uL
ABSOLUTE EOSINOPHIL [2]: 67.67 CELLS/uL
ABSOLUTE LYMPHOCYTE [2]: 7240 CELLS/uL
ABSOLUTE MONOCYTE [2]: 88 CELLS/uL
ABSOLUTE SEGMENTED NEUTROPHIL [2]: 637.67 CELLS/uL
BASOPHIL [2]: 0%
EOSINOPHIL [2]: 1%
ERYTHROCYTE COUNT [2]: 5.31 x10E6/uL
HEMATOCRIT [2]: 33.3%
HEMOGLOBIN [2]: 12.5 G/DL
LEUKOCYTE COUNT [2]: 8.03 x10E3/uL
LYMPHOCYTE [2]: 90%
MEAN CORPUSCULAR HEMOGLOBIN [2]: 23.57 pg
MEAN CORPUSCULAR HEMOGLOBIN CONCENTRATION [2]: 37.57 G/DL
MEAN CORPUSCULAR VOLUME [2]: 62.73 fL
MONOCYTE [2]: 1%
NEUTROPHIL [2]: 8%
NUCLEATED RED BLOOD CELLS [2]: 0 /100WBC
PLATELET COUNT [2]: 828 x10E3/uL
ALANINE AMINOTRANSFERASE [2]: 47 u/L
ALKALINE PHOSPHATASE [2]: 345.33 u/L
ASPARTATE AMINOTRANSFERASE [2]: 91.67 u/L
BLOOD UREA NITROGEN [2]: 15.67 mg/dL
CARBON DIOXIDE [2]: 28.67 mmol/L
CHLORIDE [2]: 107 MEQ/L
CHOLESTEROL [2]: 65 mg/dL
CREATINE PHOSPHOKINASE [2]: 419.33 u/L
CREATININE [2]: 0.27 mg/dL
GLUCOSE [2]: 147 mg/dL
LACTATE DEHYDROGENASE [2]: 130.67 u/L
LIPASE [2]: 7.5 u/L
PHOSPHORUS [2]: 10.23 mg/dL
POTASSIUM [2]: 5.87 MEQ/L
SODIUM [2]: 147.45 MEQ/L
TOTAL BILIRUBIN [2]: 0.13 mg/dL
TOTAL PROTEIN [2]: 5.17 G/DL
URIC ACID [2]: 0.73 mg/dL
ABSOLUTE BASOPHIL [3]: 0 CELLS/uL
ABSOLUTE EOSINOPHIL [3]: 301.33 CELLS/uL
ABSOLUTE LYMPHOCYTE [3]: 14418.33 CELLS/uL
ABSOLUTE MONOCYTE [3]: 118 CELLS/uL
ABSOLUTE SEGMENTED NEUTROPHIL [3]: 5662.33 CELLS/uL
BASOPHIL [3]: 0%
EOSINOPHIL [3]: 1.33%
ERYTHROCYTE COUNT [3]: 4.85 x10E6/uL
HEMATOCRIT [3]: 30.53%
HEMOGLOBIN [3]: 12.07 G/DL
LEUKOCYTE COUNT [3]: 20.5 x10E3/uL
LYMPHOCYTE [3]: 70.33%
MEAN CORPUSCULAR HEMOGLOBIN [3]: 24.9 pg
MEAN CORPUSCULAR HEMOGLOBIN CONCENTRATION [3]: 39.5 G/DL
MEAN CORPUSCULAR VOLUME [3]: 62.93 fL
MONOCYTE [3]: 0.67%
NEUTROPHIL [3]: 27.67%
NUCLEATED RED BLOOD CELLS [3]: 0.33 /100WBC
PLATELET COUNT [3]: 1467 x10E3/uL
ALANINE AMINOTRANSFERASE [3]: 44 u/L
ALKALINE PHOSPHATASE [3]: 267.67 u/L
ASPARTATE AMINOTRANSFERASE [3]: 86 u/L
BLOOD UREA NITROGEN [3]: 18 mg/dL
CARBON DIOXIDE [3]: 25 mmol/L
CHLORIDE [3]: 103.67 MEQ/L
CHOLESTEROL [3]: 58 mg/dL
CREATINE PHOSPHOKINASE [3]: 257.33 u/L
CREATININE [3]: 0.29 mg/dL
GLUCOSE [3]: 184.67 mg/dL
LACTATE DEHYDROGENASE [3]: 248 u/L
LIPASE [3]: 7.67 u/L
PHOSPHORUS [3]: 11.8 mg/dL
POTASSIUM [3]: 5.8 MEQ/L
SODIUM [3]: 142.87 MEQ/L
TOTAL BILIRUBIN [3]: 0.17 mg/dL
TOTAL PROTEIN [3]: 5.3 G/DL
URIC ACID [3]: 1.6 mg/dL

From ChEMBL document CHEMBL3885881, “DrugMatrix”
